In patent US20210300832A1, “Micronutrient Concentrate and use thereof” (FINE AGROCHEMICALS LIMITED, priority 2018, published 2021):
Read-outs that look alike come from different tables or passages of the source.

Test: Solubility test of metal salts/chelates in glycol and other solvents
Protocol: The following mixtures were prepared from anhydrous copper-EDTA and the solvents described below.
Each time 1,2-propanediol was used as solvent. EDTA is ethylene-diamine tetra-acetic acid; DTPA is diethylenetriaminepentaacetic acid. […]

[1] = 1 wt % Cu.EDTA in the named solvent, same procedure as examples 1-9

Row | SMILES | clear solution with 1 wt % Cu.EDTA (comparison solvents) [1] | clear solution with 1 wt % Cu.EDTA (comparison solvents)
1 | OCCCCO [1,4-butanediol] | None of these solvents were able to provide a clear solution | 
2 | CC(N)CO (centres unmarked) [2-aminopropanol] |  | None of these solvents were able to provide a clear solution
3 | C[S+](C)[O-] [DMSO] |  | None of these solvents were able to provide a clear solution
4 | CC(C)=O [acetone] | None of these solvents were able to provide a clear solution | 
5 | CC(C)O [iso-propylalcohol] |  | None of these solvents were able to provide a clear solution
